Source: the CheMixHub drug solubility set

Test: xn = mol fraction of the nth substance listed, in the solute-free solvent

OCCN(CCO)c1nc(N2CCCCC2)c2nc(N(CCO)CCO)nc(N3CCCCC3)c2n1 + CCO + O
solubility (g/100 g solution)
Conditions	293.15 K	298.15 K	303.15 K	308.15 K	313.15 K	318.15 K	323.15 K	328.15 K
x2 = 0.3	1.64	1.81	2.52	3.79	5.33	8.14	12.5	18
x2 = 0.4	2.59	3.74	5.59	7.99	10.8	16	22.2	29.9
x2 = 0.5	4.37	6.13	8.44	11.4	15.2	20.7	28.1	36.2
x2 = 0.6	5.48	7.13	9.58	13.1	16.6	22.2	29.3	37
x2 = 0.7	5.8	7.49	9.93	13.1	16.7	21.9	28.4	35.8
x2 = 0.8	5.06	6.52	8.76	11.6	14.9	19.3	25.6	32.2
x2 = 0.9	4.28	5.36	7.23	9.43	11.7	15.1	20.7	26.7

CCCCCOC(=O)Nc1nc(=O)n(C2OC(C)C(O)C2O)cc1F (configuration not stated) + CCOC(C)=O + CCCCCC
solubility (g/100 g solution)
Conditions	278.15 K	283.15 K	288.15 K	293.15 K	298.15 K	303.15 K	308.15 K	313.15 K	318.15 K	323.15 K
x2 = 0.09988	0.0133	0.0183	0.0254	0.0345	0.0462	0.0616	0.0815	0.107	0.139	0.18
x2 = 0.2008	0.0154	0.0212	0.0286	0.0382	0.0506	0.0664	0.0863	0.111	0.143	0.181
x2 = 0.3	0.0501	0.0621	0.0766	0.0936	0.113	0.137	0.165	0.197	0.233	0.276
x2 = 0.4	0.113	0.134	0.159	0.219	0.187	0.255	0.296	0.341	0.392	0.448
x2 = 0.5003	0.141	0.171	0.207	0.248	0.296	0.351	0.413	0.484	0.565	0.655
x2 = 0.6	0.309	0.384	0.474	0.581	0.706	0.853	1.02	1.22	1.45	1.71
x2 = 0.6998	0.423	0.535	0.67	0.833	1.03	1.26	1.53	1.85	2.22	2.65
x2 = 0.7998	0.53	0.694	0.902	1.16	1.48	1.87	2.34	2.91	3.58	4.39
x2 = 0.8999	0.819	1.09	1.43	1.85	2.38	3.04	3.84	4.8	5.96	7.33

CCCCCOC(=O)Nc1nc(=O)n(C2OC(C)C(O)C2O)cc1F (configuration not stated) + CCOC(C)=O + CCCCCCC
solubility (g/100 g solution)
Conditions	278.15 K	283.15 K	288.15 K	293.15 K	298.15 K	303.15 K	308.15 K	313.15 K	318.15 K	323.15 K
x2 = 0.3	0.0197	0.0268	0.0361	0.0476	0.0629	0.0818	0.106	0.136	0.174	0.22
x2 = 0.4	0.0475	0.0561	0.0765	0.0904	0.106	0.132	0.154	0.184	0.216	0.267
x2 = 0.5	0.0862	0.111	0.141	0.179	0.221	0.274	0.337	0.411	0.502	0.604
x2 = 0.5998	0.131	0.166	0.212	0.286	0.332	0.407	0.518	0.643	0.749	0.931
x2 = 0.7	0.266	0.34	0.455	0.554	0.682	0.849	1.07	1.31	1.63	1.98
x2 = 0.8	0.485	0.609	0.801	0.99	1.27	1.6	2.05	2.49	3.12	3.74
x2 = 0.9001	0.622	0.794	1.08	1.44	1.81	2.46	3.02	4.02	4.87	6.07

Cl.N=C(N)N + CN1CCCC1=O + CCCO
solubility (g/100 g solution)
Conditions	278.15 K	283.15 K	288.15 K	293.15 K	298.15 K	303.15 K	308.15 K	313.15 K	318.15 K	323.15 K
x2 = 0.06317	8.4	9.4	10.7	11.5	12.7	13.3	15.1	16.1	17.7	18.6
x2 = 0.2064	15.9	17	17.8	19.2	20.1	21.4	22.1	23.2	24.7	25.3
x2 = 0.3774	28.5	29.2	30.4	31	32.1	32.6	33.7	34.4	35.4	35.9
x2 = 0.5858	37.2	37.8	39.1	40.2	41.4	42.1	43.4	44.3	46	47.3
x2 = 0.845	41.9	43.3	44.2	45.5	46.7	47.9	49.3	50.4	52.6	53.1

CN1CCN(C2=Nc3cc(Cl)ccc3Nc3ccccc32)CC1 + CN1CCCC1=O + O
solubility (g/100 g solution)
Conditions	x2 = 0.0198	x2 = 0.04347	x2 = 0.07228	x2 = 0.1081	x2 = 0.1538	x2 = 0.2143	x2 = 0.2979	x2 = 0.421	x2 = 0.6207
278.15 K	0.00909	0.045	0.169	0.497	1.2	2.31	3.88	5.87	7.69
283.15 K	0.0126	0.0614	0.224	0.65	1.5	2.92	4.64	6.96	9.05
288.15 K	0.0173	0.0846	0.297	0.832	1.86	3.58	5.6	8.28	10.5
293.15 K	0.0228	0.113	0.388	1.02	2.32	4.34	6.81	9.65	12
298.15 K	0.0318	0.148	0.501	1.3	2.84	5.22	7.94	11.2	13.9
303.15 K	0.0423	0.192	0.629	1.6	3.48	6.19	9.35	12.8	15.9
308.15 K	0.0547	0.257	0.793	2.01	4.21	7.31	10.9	14.7	18
313.15 K	0.071	0.329	1.02	2.46	5.04	8.54	12.7	16.8	20.2
318.15 K	0.0919	0.419	1.25	2.99	5.94	9.98	14.5	19	22.5
323.15 K	0.12	0.537	1.56	3.57	6.98	11.6	16.5	21.4	25.1
328.15 K	0.155	0.673	1.89	4.3	8.24	13.4	18.7	24	28

Cc1c(Br)cccc1C(=O)O + CN(C)C=O + CC#N
solubility (g/100 g solution)
Conditions	x2 = 0.106	x2 = 0.224	x2 = 0.355	x2 = 0.502	x2 = 0.668	x2 = 0.858
278.15 K	6.4	10.6	14.2	17.6	20.8	23.6
283.15 K	7.69	12.4	16.8	20.7	24.4	25.8
288.15 K	8.95	14.9	19.8	24.3	28.2	32
293.15 K	11	17.3	23	28	32.5	36.6
298.15 K	12.6	20.2	26.5	32.1	37.1	41.6
303.15 K	14.5	23.3	30.5	36.5	42.1	47.1
308.15 K	17.1	26.8	34.4	41.3	47.2	52.7
313.15 K	19.5	30.5	38.9	46.3	52.7	58.5
318.15 K	22.6	34.5	43.6	51.4	58.1	64.3
323.15 K	26	38.8	48.6	56.7	63.8	70.3
328.15 K	29.2	43.1	53.5	62	69.3	76

Nc1[nH]c(=O)ncc1F + CN(C)C=O + CC(C)O
solubility (g/100 g solution)
Conditions	283.15 K	288.15 K	293.15 K	298.15 K	303.15 K	308.15 K	313.15 K	318.15 K	323.15 K
x2 = 0.0837	0.0457	0.057	0.0702	0.0871	0.105	0.126	0.149	0.174	0.203
x2 = 0.1705	0.0578	0.0715	0.0887	0.107	0.128	0.152	0.178	0.209	0.245
x2 = 0.2605	0.0731	0.0892	0.107	0.13	0.155	0.183	0.214	0.248	0.285
x2 = 0.354	0.0896	0.107	0.127	0.153	0.182	0.214	0.249	0.288	0.333
x2 = 0.4512	0.106	0.126	0.151	0.18	0.213	0.248	0.284	0.327	0.376
x2 = 0.5522	0.121	0.143	0.17	0.203	0.236	0.273	0.315	0.36	0.413
x2 = 0.6573	0.137	0.16	0.189	0.221	0.258	0.298	0.342	0.391	0.447
x2 = 0.7668	0.153	0.18	0.209	0.242	0.281	0.322	0.369	0.426	0.484
x2 = 0.8809	0.173	0.201	0.23	0.267	0.306	0.351	0.402	0.46	0.524
